Measurements: patent publication US6410588B1, “Use of cannabinoids as anti-inflammatory agents” (priority 1998, dated 2002)
“Also recorded” adds a separate entry of the source.

Columns and labels:
[1] = system: 51Cr-labeled P815 lymphoma cell line; assay: cell mediated cytotoxicity after mixed leukocyte culture; assay type: cell-based, mouse
Description: Cells harvested from MLC were tested for their cytotoxic activity against ^51Cr-labeled P815 (H-2^d)lymphoma cell line. Cytotoxic activity is given in LU/10^6cells (see Materials and Methods).
MHC-restricted CTL were activated in MLC by co-culturing 2.5×10^6 responding spleen cells for 5 days with an equal number of irradiated (25 Gy) allogeneic splenocytes in 2 ml/well of complete DMEM in 24-well plates (Costar).
Cytotoxic assays were performed as described previously (Leshem et al, 1999). Briefly, effector cells were serially diluted (threefold) in triplicate wells of conical-bottom microplates (Nunc) and mixed with washed ^51Cr-labeled target cells in a final 200 μl volume to make 4-6 effector target cell ratios. Microplates were centrifuged (70×g, 2 min.) and incubated for 4 h. They were then centrifuged at 200×g for 5 min. and the supernatants (150 μl) were counted in an automatic […] (LKB-Wallac, Finland). Percent of specific cytotoxic activity was calculated according to the formula: [(experimental cpm−background cpm)/(maximal cpm−background cpm)×100]. Lytic units (LU), were drawn from the cytotoxicity measured at 4-6 E:T cell ratios. One 1 LU is defined as the number of effector cells causing lysis of 30% target cells (Leshem and Brass, 1998).

IL-11 = assay: human rheumatoid synovial cell IL-11 production (ELISA); assay type: cell-based; details: for IL-11, mean: 48 hours culture
Description: (§1) Synovial membrane tissue was obtained from a patient fulfilling the revised American College of Rheumatology criteria for rheumatoid arthritis who underwent joint replacement surgery. Synovial cell cultures were prepared as described. Briefly, synovial membrane tissue was digested with collagenase type A (1 mg/ml) and DNAase I (0.15 mg/ml) in RPMI 1640 containing 5% FCS for 2 hours at 37° C.
(§2) Similarly, rheumatoid synovial cells spontaneously produce cytokines when cultured in vitro. […] With restricted number of human synovial cells in this sample, the optimal dose for inhibiting TNFα may have been missed.

TNFα release = TNFα release by LPS-stimulated human PBMC; assay type: cell-based; details: for TNF α: LPS 10 ng/ml 24 hours
Description: CBD was dissolved in ethanol/DMSO.
Peripheral blood mononuclear cells (PBMC) were isolated from the whole blood of healthy donors by Ficoll Hypaque gradient. […] After this 6 hour pretreatment period, the cells were stimulated with either LPS from Salmonella typhimirium, 10 ng/ml, for 24 hours (for TNF and IL-1β) or with PHA, 5 μg/ml, for 72 hours (for IFNγ) Viability of the PBMC was assessed with the MTT test.
Human PBMC were cultured and stimulated with or without CBD, as described in Materials and Methods. The stimulus for TNF and IL-1 production was LPS, the stimulus for IFNγ production was PHA. The results are the mean of triplicate wells±SEM. ND=not done.

[2] = system: collagen induced arthritis (CIA); assay: acute CIA model, oral feeding of CBD; assay type: in vivo, mouse; details: 10 days
Description: The drug was administered by oral gavage. Control mice were fed vehicle (olive oil) along, as described in Materials and Methods. Results are expressed as a mean+/−SEM.
The doses used were 10 mg/kag, 25 mg/kg and 50 mg/kg (n=6 per group), corresponding to 2, 5, and 10 mg/kg i.p. respectively. Control mice were fed olive oil (n=6).

IL-10 = assay: human rheumatoid synovial cell IL-10 production (ELISA); assay type: cell-based; details: for IL-10, mean: 48 hours culture
Description: as §1, §2

TNF = assay: human rheumatoid synovial cell TNF production (ELISA); assay type: cell-based; details: for TNF, mean: 48 hours culture
Description: as §1, §2

nitric oxide (NO) = details: macrophages activated by LPS and IFNγ; cited from earlier work
[3] = system: spleen cells (splenocytes); assay: mitogen-induced cell proliferation of spleen cells; assay type: cell-based, mouse (BALB/c, C57BL/6)
Description: Cultures were pulsed with ^3H-thymidine and harvested 6 hours later.
Female mice (aged 8-12 weeks) of strains C57BL/6 (B6, H-2^b) and BALB/c (H-2^d) were purchased from Harlan, Jerusalem, and maintained under specific pathogen-free (SPF) conditions in the animal facilities of the Hebrew University Medical School, Jerusalem, in accordance with the Hebrew University guidelines, DMEM (Biological Industries, Beit Haemek. Israel) was supplemented with 1 mM sodium pyruvate, 10 mM HEPES buffer, 0.5 mM asparagine-HCl, 0.03 mM filic acid, 0.5 mM L-aspartic acid, 5×10^−5M 2-mercaptoethanol, 2 mM glutamine, antibotics and 10% FCS (complete DMEM).
Spleen cells, at a final concentration of 5×10^6 cells/ml, were cultured in triplicate wells of flat-bottom microtiter plates (Nunc, Denmark) in medium alone, 2.5 μg/ml concanavalin A (ConA. Biomakor, Israel) or 50 μ/ml lipopolysaccharide (LPS, Difco). The final volume was 200 μl/well. Following two days of incubation at 37° C., in an 8% CO2-in-air incubator (as in all other procedures described here), 1 μCi of ^3H-thymidine was added to each well. Cells were harvested 6 h later, with a Tomtec (USA) cell harvester and counted in a MicroBeta scintillation counter (Wallac, Finland).

spleen cells = assay: mixed leukocyte reaction (MLR); assay type: cell-based, mouse (BALB/c); details: above 4 μg/ml CBD
Description: Cultures were pulsed with ^3H-thymidine and harvested 18 hours later.
Spleen cells (1×10^6/well) were co-cultured in triplicate wells of flat-bottom microtiter plates (Nunc), with an equal number of irradiated ([…]) syngeneic or allogeneic splenocytes in a final volume of 200 μl/well. After 3-days incubation, the cells were labelled with ^3H-thymidine (1 μCi/well) and harvested, following an additional incubation of 18 h, as described above.

IL-6 = assay: human rheumatoid synovial cell IL-6 production (ELISA); assay type: cell-based; details: for IL-6, mean: 48 hours culture
Description: as §1, §2

C=C(C)[C@@H]1CCC(C)=C[C@H]1c1c(O)cc(CCCCC)cc1O [CBD, Cannabidiol]
cell mediated cytotoxicity ([1]; above approximately 1 μg/ml CBD): decrease in cytotoxicity
cell mediated cytotoxicity ([1]; low concentrations of CBD): increase cytotoxicity
IL-11 release (in words) (IL-11): dose-dependent inhibition
IL-11, mean (IL-11; CBD 0.1 μg/ml): 2151 pg/mL
IL-11, mean (IL-11; CBD 1 μg/ml): 2059 pg/mL
IL-11, mean (IL-11; CBD 20 μg/ml): 100 pg/mL
TNF α (TNFα release; CBD 0.1 μg/ml, mean of triplicate wells ± SEM): 2959 ± 434 pg/mL
TNF α (TNFα release; CBD 1 μg/ml, mean ± SEM): 2503 ± 181 pg/mL
TNF α (TNFα release; CBD 2.5 μg/ml, mean ± SEM): 3071 ± 296 pg/mL
TNF α (TNFα release; CBD 5 μg/ml, mean ± SEM): 4152 ± 499 pg/mL
TNF α (TNFα release; CBD 10 μg/ml, mean ± SEM): 10,964 ± 1714 pg/ml
TNF α (TNFα release; CBD 20 μg/ml, mean ± SEM): 15,071 ± 2594 pg/ml
TNF α (TNFα release; CBD 30 μg/ml, mean ± SEM): 20,824 ± 1046 pg/ml
effect on LPS-induced TNFα release (in words) (TNFα release; higher concentrations of CBD): increased their release
effect on LPS-induced TNFα release (in words) (TNFα release; lower concentrations of CBD (0.1 to 5 μg/ml)): significantly suppressed
suppression of arthritis (in words) ([2]; 25 mg/kg daily oral gavage): significantly better than the control group; also recorded: optimal dose
suppression of arthritis (in words) ([2]; daily oral gavage after onset of arthritis): adequate suppression of the arthritis
IL-10 release (in words) (IL-10): dose-dependent inhibition
IL-10, mean (IL-10; CBD 0.1 μg/ml): 273 pg/mL
IL-10, mean (IL-10; CBD 1 μg/ml): 249 pg/mL
IL-10, mean (IL-10; CBD 20 μg/ml): 52 pg/mL
TNF, mean (TNF; CBD 0.1 μg/ml): 1963 pg/mL
TNF, mean (TNF; CBD 1 μg/ml): 2089 pg/mL
TNF, mean (TNF; CBD 20 μg/ml): 2271 pg/mL
TNFa release (in words) (TNF; first initial experiment): not suppressed
nitric oxide (NO) production (nitric oxide (NO)): inhibited
response of splenocytes to Concanavalin A (ConA) and LPS (3H-thymidine) ([3]; BALB/C splenocytes): decreases the response
response of splenocytes to Concanavalin A (ConA) and LPS (3H-thymidine) ([3]; C57BL/6 splenocytes): decreases the response
3H-thymidine uptake in MLR (spleen cells): slight decrease
IL-6 release (in words) (IL-6): dose-dependent inhibition
IL-6, mean (IL-6; CBD 0.1 μg/ml): 281 ng/mL
IL-6, mean (IL-6; CBD 1 μg/ml): 326 ng/mL
IL-6, mean (IL-6; CBD 20 μg/ml): 125 ng/mL
